Laboratory results from ChEMBL document CHEMBL1201862, “PubChem BioAssay data set” (2004).
Activity calls are given as the source filed them.

Tests used:
[1] = target: Voltage-dependent T-type calcium channel subunit alpha-1H (Homo sapiens, UniProt O95180); type: functional;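 note: channel activity triggered by adding a high calcium stimulation buffer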
[2] = target: Beta-galactosidase (Escherichia coli, UniProt Q8VNN2); experiment: PubChem AID 485352; type: functional
[3] = target: T1, Type-1 angiotensin II receptor (Homo sapiens, UniProt P30556); experiment: antagonism of angiotensin II type 1 receptor – cell-based, uHTS hits, selectivity assay for APJ receptor antagonist project, dose response (AID 463214); type: functional;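 note: antagonist potency against angiotensin II stimulated AT1 response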
T1 sequence (P30556 whole entry): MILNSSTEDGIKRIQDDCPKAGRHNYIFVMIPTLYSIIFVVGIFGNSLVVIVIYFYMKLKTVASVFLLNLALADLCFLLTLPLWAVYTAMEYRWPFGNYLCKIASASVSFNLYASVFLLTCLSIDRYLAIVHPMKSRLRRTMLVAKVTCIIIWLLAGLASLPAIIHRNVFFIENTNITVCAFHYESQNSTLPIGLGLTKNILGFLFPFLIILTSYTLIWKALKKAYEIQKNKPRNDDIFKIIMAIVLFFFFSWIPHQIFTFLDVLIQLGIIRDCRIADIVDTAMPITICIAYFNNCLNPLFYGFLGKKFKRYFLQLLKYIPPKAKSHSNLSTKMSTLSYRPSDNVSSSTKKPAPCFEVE

[4] = target: T2, Aminopeptidase N (Plasmodium falciparum FcB1/Columbia, UniProt O96935); experiment: malaria alanyl aminopeptidase activity blockers – biochemical, fluorogenic H-Leu-NHMec substrate, 1536-well (AID 1445); set-up: species or system Plasmodium falciparum 3D7, 3D7
T2 sequence (O96935 whole entry): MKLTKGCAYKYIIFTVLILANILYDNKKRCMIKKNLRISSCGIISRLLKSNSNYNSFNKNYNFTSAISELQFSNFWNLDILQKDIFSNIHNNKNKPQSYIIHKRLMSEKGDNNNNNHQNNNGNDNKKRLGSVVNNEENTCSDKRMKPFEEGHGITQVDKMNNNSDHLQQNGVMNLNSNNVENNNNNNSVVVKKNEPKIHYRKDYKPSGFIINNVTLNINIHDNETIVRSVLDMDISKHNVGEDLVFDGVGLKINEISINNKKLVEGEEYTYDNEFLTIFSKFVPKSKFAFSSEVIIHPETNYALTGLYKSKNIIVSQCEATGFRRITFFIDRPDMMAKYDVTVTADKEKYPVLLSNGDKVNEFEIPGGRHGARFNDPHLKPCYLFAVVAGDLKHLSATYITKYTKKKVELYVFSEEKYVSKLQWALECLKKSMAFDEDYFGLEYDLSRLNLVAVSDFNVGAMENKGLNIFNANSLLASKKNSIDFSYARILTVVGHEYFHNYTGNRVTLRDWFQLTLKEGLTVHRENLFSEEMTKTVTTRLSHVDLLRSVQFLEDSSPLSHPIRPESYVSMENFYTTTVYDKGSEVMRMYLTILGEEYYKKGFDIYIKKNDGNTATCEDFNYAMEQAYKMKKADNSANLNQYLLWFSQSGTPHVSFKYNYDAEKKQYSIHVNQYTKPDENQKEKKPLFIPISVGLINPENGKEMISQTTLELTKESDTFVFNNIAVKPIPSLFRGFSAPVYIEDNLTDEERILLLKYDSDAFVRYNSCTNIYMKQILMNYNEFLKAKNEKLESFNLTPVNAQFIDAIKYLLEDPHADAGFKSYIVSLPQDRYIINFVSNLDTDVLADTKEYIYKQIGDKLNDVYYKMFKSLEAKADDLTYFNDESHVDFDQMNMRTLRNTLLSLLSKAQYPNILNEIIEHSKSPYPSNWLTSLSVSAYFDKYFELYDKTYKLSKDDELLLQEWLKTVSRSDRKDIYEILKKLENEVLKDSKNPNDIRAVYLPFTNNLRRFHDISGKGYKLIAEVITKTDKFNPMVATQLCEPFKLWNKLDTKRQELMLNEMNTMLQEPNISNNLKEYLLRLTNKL

[5] = target: T3, Polyadenylate-binding protein 1 (Homo sapiens, UniProt P11940); experiment: MLLE domain peptide-binding blockers, IC50 – biochemical, fluorescence polarization, FITC-PAM2 peptide, dose response (AID 602259); type: functional; settings: read-out: IC50_Mean
[6] = target: T3, Polyadenylate-binding protein 1; experiment: MLLE binding blockers, Cy5 peptide tracer – biochemical, fluorescence polarization, Cy5-PAM2 peptide, secondary, miRNA deadenylation inhibitor project, dose response (AID 602260); type: functional; settings: read-out: IC50_Mean
[7] = system: Escherichia coli; experiment: microbe, parasite or virus in culture
[8] = target: T4, Alkaline phosphatase, tissue-nonspecific isozyme (Homo sapiens, UniProt P05186); experiment: potency against alkaline phosphatase TNAP – biochemical, luminescent, dose response, SAR follow-up (AID 1056)
T4 sequence (P05186 whole entry): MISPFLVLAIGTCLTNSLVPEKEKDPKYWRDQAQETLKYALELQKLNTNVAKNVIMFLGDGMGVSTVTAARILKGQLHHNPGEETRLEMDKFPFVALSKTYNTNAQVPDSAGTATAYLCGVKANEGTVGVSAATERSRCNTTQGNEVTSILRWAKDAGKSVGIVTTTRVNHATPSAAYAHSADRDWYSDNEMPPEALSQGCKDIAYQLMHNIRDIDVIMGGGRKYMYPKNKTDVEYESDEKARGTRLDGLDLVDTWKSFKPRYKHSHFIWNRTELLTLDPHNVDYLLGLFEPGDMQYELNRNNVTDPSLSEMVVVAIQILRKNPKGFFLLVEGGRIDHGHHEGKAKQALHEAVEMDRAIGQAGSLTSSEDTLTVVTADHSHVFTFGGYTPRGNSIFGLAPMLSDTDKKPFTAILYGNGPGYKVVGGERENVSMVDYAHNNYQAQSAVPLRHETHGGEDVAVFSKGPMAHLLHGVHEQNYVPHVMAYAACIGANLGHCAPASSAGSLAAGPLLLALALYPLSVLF

[9] = HEK-293T cell viability reduction – luminescence, B-cell screen hits, cytotoxicity control for BCR NF-kB inhibitor project, dose response (AID 489021); type: functional, cell-based;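 note: HEK-293T cells carrying an NF-kB luciferase reporter; cells exposed to compound for about 14 hours before viability readout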
[10] = target: Alkaline phosphatase, placental type (Homo sapiens, UniProt P05187); experiment: human placental alkaline phosphatase inhibition – biochemical, luminescence, confirmation (AID 1512); type: functional
[11] = system: Vero; experiment: cells; type: functional, cell-based; settings: Chlorocebus sabaeus

Voltage-dependent T-type calcium channel subunit alpha-1H, sequence (O95180 whole entry): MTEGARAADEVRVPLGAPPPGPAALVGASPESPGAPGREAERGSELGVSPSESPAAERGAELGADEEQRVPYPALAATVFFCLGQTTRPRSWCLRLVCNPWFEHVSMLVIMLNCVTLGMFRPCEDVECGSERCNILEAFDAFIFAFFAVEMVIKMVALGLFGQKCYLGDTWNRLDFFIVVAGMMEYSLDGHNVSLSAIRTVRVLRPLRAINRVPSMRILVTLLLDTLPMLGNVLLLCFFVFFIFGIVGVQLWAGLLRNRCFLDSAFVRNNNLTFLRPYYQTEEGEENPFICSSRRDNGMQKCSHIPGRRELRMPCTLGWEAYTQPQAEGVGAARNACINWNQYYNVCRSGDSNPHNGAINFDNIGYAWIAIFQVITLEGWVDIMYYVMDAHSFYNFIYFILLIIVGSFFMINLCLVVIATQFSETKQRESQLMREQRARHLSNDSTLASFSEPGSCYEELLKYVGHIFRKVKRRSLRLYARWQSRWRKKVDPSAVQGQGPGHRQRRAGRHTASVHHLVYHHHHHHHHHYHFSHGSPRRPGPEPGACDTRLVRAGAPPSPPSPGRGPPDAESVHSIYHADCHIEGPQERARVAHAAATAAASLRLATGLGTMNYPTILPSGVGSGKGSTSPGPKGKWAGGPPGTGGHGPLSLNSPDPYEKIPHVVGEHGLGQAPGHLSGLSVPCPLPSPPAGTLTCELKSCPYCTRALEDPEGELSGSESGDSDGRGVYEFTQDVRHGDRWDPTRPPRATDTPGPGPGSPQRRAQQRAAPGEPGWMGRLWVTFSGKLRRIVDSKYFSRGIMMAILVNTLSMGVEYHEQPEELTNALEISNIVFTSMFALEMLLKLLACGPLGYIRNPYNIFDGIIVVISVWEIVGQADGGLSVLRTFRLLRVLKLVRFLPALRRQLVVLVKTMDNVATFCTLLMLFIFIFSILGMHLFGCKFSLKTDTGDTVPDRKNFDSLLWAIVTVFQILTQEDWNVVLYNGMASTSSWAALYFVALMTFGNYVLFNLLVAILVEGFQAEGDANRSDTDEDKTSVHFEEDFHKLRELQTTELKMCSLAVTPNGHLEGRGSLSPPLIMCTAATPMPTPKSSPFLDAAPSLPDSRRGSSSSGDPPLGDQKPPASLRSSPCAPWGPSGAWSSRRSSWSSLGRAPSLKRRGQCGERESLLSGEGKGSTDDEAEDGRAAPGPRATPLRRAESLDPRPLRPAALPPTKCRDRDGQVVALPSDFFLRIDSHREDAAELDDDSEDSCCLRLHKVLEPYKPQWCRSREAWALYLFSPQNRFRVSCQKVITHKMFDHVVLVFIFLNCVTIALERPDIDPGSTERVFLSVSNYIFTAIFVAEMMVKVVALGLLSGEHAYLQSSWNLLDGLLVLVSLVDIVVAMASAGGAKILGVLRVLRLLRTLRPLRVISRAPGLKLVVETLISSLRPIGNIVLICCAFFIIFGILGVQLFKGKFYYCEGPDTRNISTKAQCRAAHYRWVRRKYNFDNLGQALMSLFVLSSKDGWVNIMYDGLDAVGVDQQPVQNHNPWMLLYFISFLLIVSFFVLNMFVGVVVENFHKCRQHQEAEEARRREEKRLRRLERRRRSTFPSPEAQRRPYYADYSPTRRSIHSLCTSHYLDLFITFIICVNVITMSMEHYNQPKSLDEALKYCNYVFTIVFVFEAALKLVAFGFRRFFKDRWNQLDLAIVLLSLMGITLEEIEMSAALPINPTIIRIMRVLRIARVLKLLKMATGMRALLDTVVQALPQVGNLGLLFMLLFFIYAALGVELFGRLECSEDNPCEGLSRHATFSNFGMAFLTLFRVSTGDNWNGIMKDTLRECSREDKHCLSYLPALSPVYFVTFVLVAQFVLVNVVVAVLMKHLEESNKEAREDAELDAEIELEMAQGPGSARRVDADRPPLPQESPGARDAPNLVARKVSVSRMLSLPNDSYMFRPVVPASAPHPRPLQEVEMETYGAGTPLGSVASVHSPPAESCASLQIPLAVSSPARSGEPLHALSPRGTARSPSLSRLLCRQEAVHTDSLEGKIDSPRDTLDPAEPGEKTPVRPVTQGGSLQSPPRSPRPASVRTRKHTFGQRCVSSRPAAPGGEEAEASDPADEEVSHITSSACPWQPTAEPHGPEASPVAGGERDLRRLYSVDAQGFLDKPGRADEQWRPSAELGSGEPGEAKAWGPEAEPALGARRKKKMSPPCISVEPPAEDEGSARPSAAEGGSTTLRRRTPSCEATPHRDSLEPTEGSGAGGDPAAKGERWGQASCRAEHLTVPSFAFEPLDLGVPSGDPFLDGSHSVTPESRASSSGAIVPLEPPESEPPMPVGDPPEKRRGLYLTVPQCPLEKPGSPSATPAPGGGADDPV
T3 sequence (P11940 whole entry, the tested form may be a part): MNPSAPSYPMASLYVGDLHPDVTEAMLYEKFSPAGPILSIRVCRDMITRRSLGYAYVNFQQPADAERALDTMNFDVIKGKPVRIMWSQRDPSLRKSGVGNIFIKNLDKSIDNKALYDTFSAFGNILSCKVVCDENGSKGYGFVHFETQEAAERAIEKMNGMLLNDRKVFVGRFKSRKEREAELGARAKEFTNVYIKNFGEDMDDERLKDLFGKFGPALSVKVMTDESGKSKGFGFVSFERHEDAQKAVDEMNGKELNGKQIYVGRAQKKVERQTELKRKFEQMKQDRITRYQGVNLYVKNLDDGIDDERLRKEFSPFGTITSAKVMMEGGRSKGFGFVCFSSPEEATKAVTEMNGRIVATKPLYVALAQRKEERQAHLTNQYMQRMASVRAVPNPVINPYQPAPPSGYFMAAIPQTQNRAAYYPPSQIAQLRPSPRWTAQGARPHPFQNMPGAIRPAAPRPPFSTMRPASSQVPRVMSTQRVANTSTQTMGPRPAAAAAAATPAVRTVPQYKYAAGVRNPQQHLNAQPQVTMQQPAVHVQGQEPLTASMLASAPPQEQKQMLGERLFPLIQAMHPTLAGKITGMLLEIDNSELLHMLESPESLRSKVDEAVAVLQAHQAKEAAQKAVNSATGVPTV
Beta-galactosidase, sequence (Q8VNN2 whole entry): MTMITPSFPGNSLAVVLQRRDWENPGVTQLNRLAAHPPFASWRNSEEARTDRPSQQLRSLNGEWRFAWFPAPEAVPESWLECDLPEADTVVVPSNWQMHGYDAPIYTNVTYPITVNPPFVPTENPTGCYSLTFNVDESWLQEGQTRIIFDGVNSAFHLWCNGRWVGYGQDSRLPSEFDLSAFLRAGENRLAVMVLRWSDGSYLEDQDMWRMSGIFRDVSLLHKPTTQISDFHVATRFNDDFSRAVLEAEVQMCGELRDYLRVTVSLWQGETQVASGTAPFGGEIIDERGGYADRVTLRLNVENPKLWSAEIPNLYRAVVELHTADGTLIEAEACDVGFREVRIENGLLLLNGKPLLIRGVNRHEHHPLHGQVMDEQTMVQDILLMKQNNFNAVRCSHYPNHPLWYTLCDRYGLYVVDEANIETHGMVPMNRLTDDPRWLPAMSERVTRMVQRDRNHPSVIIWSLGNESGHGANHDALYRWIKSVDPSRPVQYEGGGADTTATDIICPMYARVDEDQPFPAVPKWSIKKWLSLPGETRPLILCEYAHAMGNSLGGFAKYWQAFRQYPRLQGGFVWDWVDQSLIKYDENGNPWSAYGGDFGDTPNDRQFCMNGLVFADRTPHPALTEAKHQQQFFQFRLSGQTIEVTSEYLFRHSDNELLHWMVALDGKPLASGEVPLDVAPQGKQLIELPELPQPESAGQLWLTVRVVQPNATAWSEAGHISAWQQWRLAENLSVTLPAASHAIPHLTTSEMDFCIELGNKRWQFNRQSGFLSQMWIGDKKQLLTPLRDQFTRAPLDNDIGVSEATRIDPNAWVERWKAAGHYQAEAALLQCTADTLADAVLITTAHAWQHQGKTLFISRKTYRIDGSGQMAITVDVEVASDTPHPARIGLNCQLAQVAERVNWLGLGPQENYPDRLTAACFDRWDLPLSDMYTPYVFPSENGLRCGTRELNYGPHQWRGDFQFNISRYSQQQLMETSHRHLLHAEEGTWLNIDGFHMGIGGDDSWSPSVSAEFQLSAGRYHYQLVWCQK
Alkaline phosphatase, placental type, sequence (P05187 whole entry): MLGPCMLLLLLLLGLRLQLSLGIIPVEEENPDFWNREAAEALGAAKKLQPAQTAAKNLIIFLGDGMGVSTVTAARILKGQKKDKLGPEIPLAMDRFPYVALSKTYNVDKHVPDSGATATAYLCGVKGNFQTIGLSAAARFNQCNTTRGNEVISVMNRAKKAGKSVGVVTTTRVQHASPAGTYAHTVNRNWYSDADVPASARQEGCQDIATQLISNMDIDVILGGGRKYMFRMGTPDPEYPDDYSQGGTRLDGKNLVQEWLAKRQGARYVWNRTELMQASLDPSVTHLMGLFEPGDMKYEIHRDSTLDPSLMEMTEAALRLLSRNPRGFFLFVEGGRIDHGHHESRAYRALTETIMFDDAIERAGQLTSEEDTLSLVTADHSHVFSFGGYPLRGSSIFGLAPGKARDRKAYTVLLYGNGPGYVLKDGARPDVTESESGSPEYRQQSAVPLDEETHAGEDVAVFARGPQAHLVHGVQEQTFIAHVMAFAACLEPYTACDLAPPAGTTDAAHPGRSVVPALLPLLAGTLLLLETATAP

## Cc1cccc(-c2nc(C[S+]([O-])CC(=O)NCCCSC3CCCCC3)c(C)o2)c1 (stereo unspecified)
[1]
  EC50: 3.94 µM (active)

## O=C(CN1C(=O)C2C3CCC(C3)C2C1=O)OCC(=O)c1cccc([N+](=O)[O-])c1 (stereo unspecified)
[2]
  EC50: > 40 µM (inactive)
[3]
  IC50: 26.3 µM (not active)

## O=C(NC1CCN(C(=O)NCc2ccccc2)CC1)c1ccco1
[4]
  IC50: 93.2 µM (active)

## COc1ccc(S(=O)(=O)N2CCN(c3ccc(C)cc3C)CC2)cc1OC
[1]
  EC50: 9.63 µM (active)

## Cc1cc2cc(CNC(=O)c3ccc(Br)o3)ccc2[nH]1
[5]
  IC50: 49.6 µM (inactive)
[6]
  IC50: 45.1 µM (inactive)
[1]
  EC50: 10.1 µM (active)

## CC(C)(C)n1nnnc1C(c1cc2cc3c(cc2nc1O)OCCO3)N1CCSCC1 (stereo unspecified)
[7]
  AC50: 28.6 µM (active)

## O=C(Cn1cnc2ccccc21)c1ccc(O)c(O)c1
[8]
  IC50: 14 µM (active)

## NS(=O)(=O)c1ccc(NC(=O)CSc2nnc(-c3ccc(O)cc3)o2)cc1
[7]
  AC50: 127 µM (active)

## COc1cc(/C(C)=N\NC(N)=S)cc(OC)c1OC
[9]
  IC50: > 80 µM (inactive)

## COc1ccc(-c2nnc(SCC(=O)c3ccc(O)c(O)c3)n2-c2ccccc2)cc1
[8]
  IC50: > 100 µM (inactive)
[10]
  IC50: 7.22 µM (active)

## Cc1ccc2c(Cl)cc(Cl)c(O)c2n1 [CHLORQUINALDOL]
[11]
  IC50: > 25 µM (active)
[7]
  AC50: 54.3 µM (active)
